According to patent publication EP1020531A2, “Use of spore adhesion assays in fungicide screening” (priority 1999, dated 2000):
≈ marks a conversion by molar mass, not a printed value.

Tests used:
Botrytis cinerea spores [1] = assay: Spore adhesion assay in polystyrene counting vials (Coulter Counter); assay type: cell-based; conditions: 25°C, 5.5 h; for EC50: Botrytis cinerea, read-out: Inhn. of Spore Adhesion (EC50, ppm) Counting vials
Experimental: (§1) Botrytis cinerea was grown at room temperature under fluorescent lights on potato dextrose agar (PDA), and subcultured every 14 days. To prepare spore suspensions, 20 ml sterile milliQ™ water was added to plates (10-14 days old) and the surface scraped gently with a sterile loop. The fluid was filtered through glass wool to remove mycelial fragments, then the spore density was adjusted to the desired concentration.
Various fungicides were evaluated for their abilities to inhibit germination-associated spore adhesion to polystyrene counting vials, polymethylpentene (Permanox®) chamber slides and 96-well flat-bottomed polystyrene microtiter plates, and for their effects on spore germination and mycelial growth (table below). Adhesion assays in chamber slides and germination assays were performed as in Example 1 with incubation at 25°C for 5.5 h. Adhesion assays in counting vials were conducted in 20 ml capacity polystyrene counting vials (VWR cat. no. 14310-640). Counting vials received 5 µl of DMSO (controls) or test compound dissolved in DMSO, followed by 500 µl of SDB. Aqueous spore suspension (500 µl) at 200,000 spores/ml was added, mixed gently and the vials or slides incubated at 25°C for 5.5 h. To determine the numbers of unbound spores 15 ml of counting fluid was added, vials were capped and inverted gently 5 times, then counted using a Coulter Counter®.

Botrytis cinerea spores [2] = assay: microbe, parasite or virus in culture; assay type: cell-based; conditions: 5.5 h; for EC50: Botrytis cinerea, read-out: Inhn. of Spore Adhesion (EC50, ppm) Chamber Slides
[3] = test system: Colletotrichum lagenarium spores; assay: Spore adhesion assay in 96-well polystyrene microtiter plates; assay type: cell-based; conditions: for Inhn. of Adhesion (EC50, ppm) Microtiter plates: SDB with Tween 20 (40 ppm), 8 h
Experimental: (§2) For adhesion assays in microtiter plates, stock solutions of test compounds were prepared in DMSO then diluted in SDB such that the DMSO concentration after dilution was ≤2%. Two-fold serial dilutions of these test compound solutions were made in SDB (100 µl) in 96-well flat-bottomed microtiter plates. Spore suspension (100 µl at 2X10^5 spores/ml) was added to the wells, and the plates were incubated at 25°C for 5.5 hours. The medium containing unbound spores was removed by inverting and flicking the microtiter plate to remove as much liquid as possible.
Colletotrichum lagenarium was grown at 25°C in the dark on potato dextrose agar and subcultured every 7-14 days. To prepare spore suspensions, 15 ml sterile water was added to plates (7-10 days old) and the plates agitated gently on a gyrotary shaker for 10 min to release spores. The resulting spore suspension was filtered through glass wool and adjusted to the desired concentration. Spore adhesion assays and germination assays were conducted as outlined in Example 1 for Botrytis except that the SDB medium contained Tween™ 20 (40 ppm), and the spore inoculum was prepared at 5X10^5 spores/ml. Data in the table below show a time-dependent adhesion of spores to the slide which closely parallels the time-course for spore germination.
Various fungicides were evaluated for their abilities to inhibit spore adhesion in 96-well flat-bottomed polystyrene microtiter plates and Permanox® chamber slides, and for their effects on spore germination and mycelial growth. Assays were conducted as outlined in Example 2 for Botrytis except that the SDB medium contained Tween™ 20 (40 ppm), the spore inoculum was prepared at 5X10^5 spores/ml, and 8 h incubation was used for the adhesion and germination assays. For each compound tested, EC50 values for inhibition of adhesion to microtiter plates and chamber slides were similar. Spore adhesion was sensitive to all compounds which inhibited germination at low concentrations (<0.2 ppm).

Magnaporthe grisea = assay type: cell-based; conditions: for EC50 (ppm): inhibition of adhesion, YEG, 25°C, 6 hours; for inhibition of germination-associated adhesion: statement in words
[4] = test system: Colletotrichum lagenarium; assay: Mycelial growth inhibition, poison agar assay; assay type: cell-based
Botrytis = assay: Mycelial growth inhibition, poison agar assay; conditions: for EC50: Botrytis, 72 h, read-out: Mycelial Growth Inhn. EC50 (ppm)
Experimental: Inhibition of mycelial growth was evaluated in poison agar assays. A 4-fold dilution series of each fungicide to be tested was prepared in DMSO and 125 µl of each dilution was added to 25 ml of molten malt extract agar (20 g malt extract, 20 g glucose, 1 g peptone and 20 g agar per liter). The medium containing test compound was poured immediately into 9 cm diameter petri dishes. Two replicate plates were used for each treatment. Each plate was inoculated with a 7 mm diameter plug taken from the growing edge of a Botrytis culture on PDA. Colony diameters were measured after growth for 3 days in the dark at 25°C. EC50 values were determined from dose-response curves.

[5] = test system: Colletotrichum lagenarium spores; assay type: cell-based; conditions: SDB with Tween 20 (40 ppm), 8 h
Botrytis cinerea spores [6] = assay: Spore germination assay (microscopic examination); assay type: cell-based; conditions: 25°C, 5.5 h; for EC50: Botrytis cinerea, read-out: Inhn. of Germination EC50 (ppm)
[7] = test system: Colletotrichum lagenarium spores; assay: Spore germination assay; assay type: cell-based; conditions: for Germination EC50 (ppm): 8 h
Botrytis cinerea spores [8] = assay: Spore adhesion assay in 96-well polystyrene microtiter plates (sulforhodamine B); assay type: cell-based; conditions: 25°C, 5.5 hours; for EC50: Botrytis cinerea, read-out: Inhn. of Spore Adhesion (EC50, ppm) Microtiter plates
Experimental: as §1, §2

[9] = test system: Aspergillus nidulans spores; assay: Spore adhesion assay in 96-well polystyrene microtiter plates; assay type: cell-based; conditions: statement in words
Experimental: as §2
Various fungicides were evaluated for their abilities to inhibit spore adhesion in 96-well flat-bottomed polystyrene microtiter plates. Adhesion assays were conducted as outlined in Example 2 for Botrytis except that the spore inoculum was prepared at 2X10^6 spores/ml, and plates were incubated at 37°C for 8 h.

Puccinia recondita = assay: Germination-associated spore adhesion assay in microtiter plates (sulforhodamine B); assay type: cell-based; conditions: for EC50 (ppm): inhibition of adhesion, 0.05% Tween 20, 19°C, 4 hours; for inhibition of germination-associated adhesion: statement in words
Botrytis cinerea spores [10] = assay: Spore adhesion to Plexiglas chamber slides; assay type: cell-based
Experimental: Assays were conducted in custom-made chamber slides made of Plexiglas®. Chamber slide wells received 5 µl of DMSO (controls) or kresoxim-methyl dissolved in DMSO, followed by 500 µl of SDB. Aqueous spore suspension (500 µl) at 200,000 spores/ml was added, mixed gently and the vials or slides incubated at 25°C for the desired period. The number of nonadhered spores was determined by transferring the fluid to a counting vial, washing the chamber slide well once by adding 1 ml of counting fluid to the well, shaking gently, and then adding the wash to the counting vial. Counting fluid (14 ml) was added to the vial, and the spores counted using a Coulter Counter®. The number of adhered spores was determined by subtracting the number of nonadhered spores from the total number of spores and was expressed as a percentage (% Adhesion).

Botrytis cinerea spores [11] = assay: Spore adhesion to polyethylene vials; assay type: cell-based
Botrytis cinerea spores [12] = assay: Spore adhesion to borosilicate glass vials; assay type: cell-based
Botrytis cinerea spores [13] = assay: Spore adhesion to polypropylene vials; assay type: cell-based; conditions: 7 hours

Structure (SMILES) | Inhn. of Adhesion (EC50, ppm) Microtiter plates [3] [ppm] | EC50 (ppm) (Magnaporthe grisea) | inhibition of germination-associated adhesion (Magnaporthe grisea) | Mycelial Growth Inhn. EC50 (ppm) [4] [ppm] | Inhn. of Adhesion (EC50, ppm) Chamber slides [5] [ppm] | EC50 (Botrytis) [µg/mL] | EC50 (Botrytis cinerea spores [6]) [µg/mL] | Germination EC50 (ppm) ([7]; SDB with Tween 20 (40 ppm)) | EC50 (Botrytis cinerea spores [8]) [µg/mL] | EC50 (Botrytis cinerea spores [1]) [µg/mL] | EC50 (Botrytis cinerea spores [2]) [µg/mL] | inhibition of spore adhesion [9] | EC50 (ppm) (Puccinia recondita) | inhibition of germination-associated adhesion (Puccinia recondita) | also measured
CO/C=C(/C(=O)OC)c1ccccc1Oc1cc(Oc2ccccc2C#N)ncn1 [Azoxystrobin] | 0.027 | 0.064 | potent inhibitors of germination-associated adhesion | >10 | 0.014 | – | – | – | – | – | – | – | – | – | Inhn. of Spore Adhesion (EC50, ppm) Counting vials (Botrytis cinerea spores [1]): 0.19 ppm; Inhn. of Spore Adhesion (EC50, ppm) Chamber Slides (Botrytis cinerea spores [2]; Permanox chamber slides, 25°C): 0.28 ppm; Mycelial Growth Inhn. EC50 (ppm) (Botrytis; malt extract agar, 3 days, 25°C): 3.05 ppm; Inhn. of Germination EC50 (ppm) (Botrytis cinerea spores [6]): 0.32 ppm; Germination EC50 (ppm) ([7]; 40 ppm): 0.010 ppm; Inhn. of Spore Adhesion (EC50, ppm) Microtiter plates (Botrytis cinerea spores [8]): 0.19 ppm
COC(=O)Nc1nc2ccccc2[nH]1 [Carbendazim] | 1.96 | – | – | 0.060 | >10 | 0.045 (≈ 0.235 µM) | > 25 | >10 | > 10 | – | – | – | – | – | activity in the spore adhesion assay ([3]; statement in words on adhesion to microtiter plates and chamber slides): little or no activity; inhibition of germination ([7]; statement in words): did not inhibit germination
N#Cc1c(Cl)c(Cl)c(Cl)c(C#N)c1Cl [Chlorothalonil] | 0.068 | 0.038 | potent inhibitors of germination-associated adhesion | 7.10 | 0.104 | 0.35 (≈ 1.32 µM) | 0.067 (≈ 0.252 µM) | 0.005 | 0.1 (≈ 0.376 µM) | 0.093 (≈ 0.35 µM) | 0.089 (≈ 0.335 µM) | highly potent inhibitors of spore adhesion | 0.473 | inhibited germination-associated adhesion | –
N#Cc1c[nH]cc1-c1cccc(Cl)c1Cl [Fenpiclonil] | – | – | – | – | – | 0.0015 (≈ 0.00633 µM) | < 0.0312 | – | 0.09 (≈ 0.38 µM) | 0.096 (≈ 0.405 µM) | 1.89 (≈ 7.97 µM) | – | – | – | –
O=[N+]([O-])c1cc(C(F)(F)F)c(Cl)c([N+](=O)[O-])c1Nc1ncc(C(F)(F)F)cc1Cl [Fluazinam] | <0.019 | – | – | 0.017 | 0.007 | 0.033 (≈ 0.071 µM) | 0.028 (≈ 0.0602 µM) | 0.004 | 0.051 (≈ 0.11 µM) | 0.041 (≈ 0.0882 µM) | 0.071 (≈ 0.153 µM) | highly potent inhibitors of spore adhesion | 0.365 | inhibited germination-associated adhesion | –
O=C1c2ccccc2C(=O)N1SC(Cl)(Cl)Cl [Folpet] | – | – | – | – | – | 5.5 (≈ 18.5 µM) | 0.15 (≈ 0.506 µM) | – | 0.33 (≈ 1.11 µM) | 0.21 (≈ 0.708 µM) | 0.22 (≈ 0.742 µM) | – | – | – | –
CO/N=C(/C(=O)OC)c1ccccc1COc1ccccc1C [Kresoxim-methyl] | 0.026 | 0.067 | potent inhibitors of germination-associated adhesion | >10 | 0.054 | 0.28 (≈ 0.894 µM) | 0.02 (≈ 0.0638 µM) | 0.015 | 0.011 (≈ 0.0351 µM) | 0.014 (≈ 0.0447 µM) | 0.035 (≈ 0.112 µM) | highly potent inhibitors of spore adhesion | 0.016 | inhibited germination-associated adhesion | %Adhesion with kresoxim-methyl, 10 ppm (Botrytis cinerea spores [10]; 7 hours): 17.4%; %Adhesion with kresoxim-methyl, 10 ppm (Botrytis cinerea spores [10]; 8 hours): 26.2%; %Adhesion with kresoxim-methyl, 10 ppm (Botrytis cinerea spores [11]; 6 hours): 12.7%; %Adhesion with kresoxim-methyl, 10 ppm (Botrytis cinerea spores [11]; 7 hours): 15.1%; %Adhesion with kresoxim-methyl, 10 ppm (Botrytis cinerea spores [12]; 6 hours): 23.4%; %Adhesion with kresoxim-methyl, 10 ppm (Botrytis cinerea spores [12]; 7 hours): 29.6%; %Adhesion with kresoxim-methyl, 10 ppm (Botrytis cinerea spores [13]): 18.9%
Cc1cc(C)nc(Nc2ccccc2)n1 [Pyrimethanil] | – | – | – | – | – | 0.48 (≈ 2.41 µM) | 8.6 (≈ 43.2 µM) | – | > 10 | > 25 | > 25 | – | – | – | –
CN(C)C(=S)SSC(=S)N(C)C [Thiram] | – | – | – | – | – | 0.78 (≈ 3.24 µM) | < 0.625 | – | 1.86 (≈ 7.74 µM) | 1.04 (≈ 4.33 µM) | 1.87 (≈ 7.78 µM) | – | – | – | –
C=CC1(C)OC(=O)N(c2cc(Cl)cc(Cl)c2)C1=O (centres unmarked) [Vinclozolin] | – | – | – | – | – | 0.11 (≈ 0.384 µM) | < 0.5 | – | 0.62 (≈ 2.17 µM) | 0.56 (≈ 1.96 µM) | > 5 | – | – | – | –
